Experimental data from PubChem BioAssay AID248 (DTP/NCI, 2004).
Values joined by “and” are separate entries in the source; they are usually repeats but may differ in a detail not shown here. Identical values can stand only once. Toxic doses and inconclusive results are not listed. Rule as the data show it: active = T/C of 150% or more; inactive = T/C below 125%.

Test system: L1210 leukemia ip in BDF1 mice, survival T/C
Assay: NCI In Vivo Anticancer Drug Screen. Data for tumor model L1210 Leukemia (intraperitoneal) in B6D2F1 (BDF1) mice
Details: endpoint: mean survival time, higher = longer survival
Outline: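 Read-out is survival time, reported as the treated-group measurement over the vehicle-control measurement.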

[1] = dose: 100.0 mg/kg/injection, schedule: Q04DX003 (ip), vehicle: saline
[2] = dose: 200.0 mg/kg/injection, schedule: Q04DX003 (ip), vehicle: saline
[3] = dose: 100.0 mg/kg/injection, schedule: Q04DX003 (ip), vehicle: acetone
[4] = dose: 200.0 mg/kg/injection, schedule: Q04DX003 (ip), vehicle: acetone
[5] = dose: 12.5 mg/kg/injection, schedule: Q01DX009 (ip), vehicle: saline
[6] = dose: 100.0 mg/kg/injection, schedule: Q04DX003 (ip), vehicle: saline with Tween-80
[7] = dose: 100.0 mg/kg/injection, schedule: Q04DX002 (ip), vehicle: saline with Tween-80
[8] = dose: 100.0 mg/kg/injection, schedule: Q01DX001 (ip), vehicle: saline

Measured: T/C

CCC[As](=O)(O)Cc1ccccc1C
inactive: dose: 0.78 mg/kg/injection, schedule: Q01DX009 (ip), vehicle: saline with Tween-80 95 % of control | dose: 1.56 mg/kg/injection, schedule: Q01DX009 (ip), vehicle: saline with Tween-80 97 % of control | dose: 1.56 mg/kg/injection, schedule: Q04DX003 (ip), vehicle: saline with Tween-80 93 % of control | dose: 3.12 mg/kg/injection, schedule: Q01DX009 (ip), vehicle: saline with Tween-80 97 % of control | dose: 3.12 mg/kg/injection, schedule: Q04DX002 (ip), vehicle: saline with Tween-80 103 % of control | dose: 3.12 mg/kg/injection, schedule: Q04DX003 (ip), vehicle: saline with Tween-80 97 % of control | dose: 6.25 mg/kg/injection, schedule: Q01DX001 (ip), vehicle: saline with Tween-80 106 % of control | dose: 6.25 mg/kg/injection, schedule: Q01DX009 (ip), vehicle: saline with Tween-80 101 % of control and 103 % of control | dose: 6.25 mg/kg/injection, schedule: Q04DX003 (ip), vehicle: saline with Tween-80 95 % of control | dose: 12.5 mg/kg/injection, schedule: Q01DX001 (ip), vehicle: saline with Tween-80 109 % of control | dose: 12.5 mg/kg/injection, schedule: Q04DX002 (ip), vehicle: saline with Tween-80 90 % of control | dose: 12.5 mg/kg/injection, schedule: Q04DX003 (ip), vehicle: saline with Tween-80 103 % of control

CC(=O)[O][Hg][c]1cc2c(cc1N)C(=O)c1ccccc1-2
inactive: dose: 12.5 mg/kg/injection, schedule: Q01DX001 (ip), vehicle: carboxymethylcellulose (CMC) 102 % of control

CC(C)C(=O)OCC1CC2C=CC1C2 (stereo unspecified)
inactive: dose: 222.0 mg/kg/injection, schedule: Q01DX Z (ip), vehicle: saline 96 % of control | dose: 333.0 mg/kg/injection, schedule: Q01DX Z (ip), vehicle: saline 104 % of control | dose: 500.0 mg/kg/injection, schedule: Q01DX Z (ip), vehicle: saline 98 % of control

CCOCC[n+]1ccc(C)cc1
inactive: [1] 107 % of control | [2] 95 % of control

O=C1NNC(=O)NN1
inactive: dose: 50.0 mg/kg/injection, schedule: Q01DX009 (ip), vehicle: Klucel (hydroxypropylcellulose) (HPC) 97 % of control | dose: 100.0 mg/kg/injection, schedule: Q01DX009 (ip), vehicle: Klucel (hydroxypropylcellulose) (HPC) 103 % of control | dose: 100.0 mg/kg/injection, schedule: Q04DX003 (ip), vehicle: Klucel (hydroxypropylcellulose) (HPC) 100 % of control and 101 % of control | dose: 200.0 mg/kg/injection, schedule: Q01DX009 (ip), vehicle: Klucel (hydroxypropylcellulose) (HPC) 105 % of control | dose: 200.0 mg/kg/injection, schedule: Q04DX003 (ip), vehicle: Klucel (hydroxypropylcellulose) (HPC) 95 % of control | dose: 400.0 mg/kg/injection, schedule: Q04DX003 (ip), vehicle: Klucel (hydroxypropylcellulose) (HPC) 94 % of control

O=NN(CCCl)C(=O)Nc1ccccc1Cl
inactive: dose: 100.0 mg/kg/injection, schedule: Q01DX001 (ip), vehicle: carboxymethylcellulose (CMC) 87 % of control

CCCCCCCCCCCC(=O)CCCCC
inactive: dose: 100.0 mg/kg/injection, schedule: Q01DX009 (ip), vehicle: other 91 % of control | dose: 200.0 mg/kg/injection, schedule: Q01DX009 (ip), vehicle: other 94 % of control | dose: 400.0 mg/kg/injection, schedule: Q01DX009 (ip), vehicle: other 91 % of control

COCCNP(=O)(OC)OC
inactive: dose: 50.0 mg/kg/injection, schedule: Q01DX009 (ip), vehicle: acetone 100 % of control | dose: 50.0 mg/kg/injection, schedule: Q04DX003 (ip), vehicle: acetone 96 % of control | dose: 100.0 mg/kg/injection, schedule: Q01DX001 (ip), vehicle: acetone 110 % of control | dose: 100.0 mg/kg/injection, schedule: Q01DX009 (ip), vehicle: acetone 108 % of control | [3] 101 % of control | dose: 200.0 mg/kg/injection, schedule: Q01DX001 (ip), vehicle: acetone 102 % of control | dose: 200.0 mg/kg/injection, schedule: Q01DX009 (ip), vehicle: acetone 97 % of control | [4] 111 % of control

CCOC(=O)C(CC(C)C)NC(=O)c1ccc(C)c2c1Nc1c(c(C)c3oc(=O)c(C)nc3c1C(=O)NC(CC(C)C)C(=O)OCC)O2 (stereo unspecified)
inactive: dose: 75.0 mg/kg/injection, schedule: Q01DX001 (ip), vehicle: other 91 % of control | dose: 150.0 mg/kg/injection, schedule: Q01DX001 (ip), vehicle: other 86 % of control | dose: 300.0 mg/kg/injection, schedule: Q01DX001 (ip), vehicle: other 88 % of control

Nc1ccc(O)c2ncccc12
inactive: dose: 6.25 mg/kg/injection, schedule: Q01DX009 (ip), vehicle: saline 95 % of control | [5] 92 % of control | dose: 50.0 mg/kg/injection, schedule: Q01DX001 (ip), vehicle: saline 98 % of control

c1ccc2nc(C3CO3)cnc2c1 (stereo unspecified)
inactive: [6] 100 % of control | dose: 200.0 mg/kg/injection, schedule: Q04DX003 (ip), vehicle: saline with Tween-80 91 % of control | dose: 400.0 mg/kg/injection, schedule: Q04DX003 (ip), vehicle: saline with Tween-80 99 % of control

CCOC(=O)C(C)C1(c2ccccc2)OC(=O)c2ccccc21 (stereo unspecified)
inactive: [7] 108 % of control | dose: 200.0 mg/kg/injection, schedule: Q04DX002 (ip), vehicle: saline with Tween-80 112 % of control | dose: 400.0 mg/kg/injection, schedule: Q04DX002 (ip), vehicle: saline with Tween-80 97 % of control

NNC(=O)c1ccncc1
inactive: [5] 98 % of control | dose: 19.25 mg/kg/injection, schedule: Q01DX Z (ip), vehicle: carboxymethylcellulose (CMC) 103 % of control | dose: 25.0 mg/kg/injection, schedule: Q01DX009 (ip), vehicle: saline 107 % of control | dose: 25.0 mg/kg/injection, schedule: Q04DX003 (ip), vehicle: saline 108 % of control | dose: 38.5 mg/kg/injection, schedule: Q01DX Z (ip), vehicle: carboxymethylcellulose (CMC) 93 % of control | dose: 50.0 mg/kg/injection, schedule: Q01DX009 (ip), vehicle: saline 104 % of control | dose: 50.0 mg/kg/injection, schedule: Q04DX003 (ip), vehicle: saline 101 % of control | dose: 77.0 mg/kg/injection, schedule: Q01DX Z (ip), vehicle: carboxymethylcellulose (CMC) 106 % of control | [8] 98 % of control | dose: 100.0 mg/kg/injection, schedule: Q01DX009 (ip), vehicle: saline 100 % of control | [1] 101 % of control | dose: 154.0 mg/kg/injection, schedule: Q01DX Z (ip), vehicle: carboxymethylcellulose (CMC) 108 % of control | [2] 86 % of control

CCCCN(C=S)CCCC
inactive: dose: 25.0 mg/kg/injection, schedule: Q04DX002 (ip), vehicle: saline with Tween-80 98 % of control | dose: 50.0 mg/kg/injection, schedule: Q04DX002 (ip), vehicle: saline with Tween-80 95 % of control | [7] 102 % of control | [6] 92 % of control

CCCCCCCCCCCCC[n+]1ccc(C#N)cc1
inactive: dose: 7.5 mg/kg/injection, schedule: Q04DX003 (ip), vehicle: saline 101 % of control | dose: 15.0 mg/kg/injection, schedule: Q04DX003 (ip), vehicle: saline 98 % of control | dose: 30.0 mg/kg/injection, schedule: Q04DX003 (ip), vehicle: saline 101 % of control

CCOC(=O)CCN(CC(C)C)C(=S)Nc1ccccc1
inactive: dose: 100.0 mg/kg/injection, schedule: Q01DX Z (ip), vehicle: methylcellulose (MC) 93 % of control

CC1(C)NC(C(=O)O)C(C)(C)S1 (stereo unspecified)
inactive: [8] 100 % of control | dose: 200.0 mg/kg/injection, schedule: Q01DX001 (ip), vehicle: saline 89 % of control | dose: 400.0 mg/kg/injection, schedule: Q01DX001 (ip), vehicle: saline 95 % of control

COC(=O)c1ccc(N=Nc2ncc(CCNC(=O)C(F)(F)F)[nH]2)cc1
inactive: dose: 100.0 mg/kg/injection, schedule: Q01DX001 (ip), vehicle: saline with Tween-80 97 % of control | dose: 200.0 mg/kg/injection, schedule: Q01DX001 (ip), vehicle: saline with Tween-80 96 % of control | dose: 400.0 mg/kg/injection, schedule: Q01DX001 (ip), vehicle: saline with Tween-80 111 % of control

Cc1cc(CCl)c(Br)cc1CCl
inactive: dose: 100.0 mg/kg/injection, schedule: Q04DX002 (ip), vehicle: Klucel (hydroxypropylcellulose) (HPC) 100 % of control | dose: 200.0 mg/kg/injection, schedule: Q04DX002 (ip), vehicle: Klucel (hydroxypropylcellulose) (HPC) 100 % of control | dose: 400.0 mg/kg/injection, schedule: Q04DX002 (ip), vehicle: Klucel (hydroxypropylcellulose) (HPC) 107 % of control

O=[N+]([O-])c1cc([N+](=O)[O-])c(NC(c2ccccc2)C(O)c2ccccc2)c([N+](=O)[O-])c1 (stereo unspecified)
inactive: [3] 98 % of control | [4] 96 % of control | dose: 400.0 mg/kg/injection, schedule: Q04DX003 (ip), vehicle: acetone 93 % of control
